Experimental data reported in patent publication US8912200B2, “Alkynyl substituted pyrimidinyl-pyrroles active as kinases inhibitors” (Nerviano Medical Sciences S.R.L., priority 2011, dated 2014).

Legend:
JAK2 kinase domain = target: T1, JAK2 kinase domain (Homo sapiens, UniProt O60674); assay: Biochemical assay for inhibitors of JAK kinase activity (JAK2, 33P-γ-ATP/dowex resin); details: JAK2 kinase domain 1 nM, 60 μM ATP
T1 construct: commercially available JAK2 kinase domain; purchased Invitrogen, Eugene, Oreg
T1 sequence (O60674 849-1124 limits assumed): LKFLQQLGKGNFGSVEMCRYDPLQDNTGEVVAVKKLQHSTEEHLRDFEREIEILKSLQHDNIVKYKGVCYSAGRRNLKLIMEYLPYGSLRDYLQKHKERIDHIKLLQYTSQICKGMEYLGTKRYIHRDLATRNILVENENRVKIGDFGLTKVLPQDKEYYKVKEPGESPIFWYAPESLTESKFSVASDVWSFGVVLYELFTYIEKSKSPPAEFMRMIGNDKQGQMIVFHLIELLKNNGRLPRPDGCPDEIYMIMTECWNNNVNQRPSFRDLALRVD
In short: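 Human JAK2 (1 nM) phosphorylated peptide BioDBn*306 (64 μM) with 60 μM ATP plus 3 nM 33P-γ-ATP in HEPES pH 7.5/MgCl2/DTT buffer, 60 min at room temperature. Unreacted ATP captured by Dowex resin; supernatant β-counted. IC50 from sigmoidal fit of ten-point 1:3 dilution curves.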

Lyn full length = target: T2, Lyn full length (Homo sapiens, UniProt P07948); assay: Biochemical assay for inhibitors of Lyn (Src family) kinase activity; details: Lyn full length 1 nM, 25 μM ATP
T2 construct: The assay has been performed using Lyn full length
T2 sequence (P07948 whole entry): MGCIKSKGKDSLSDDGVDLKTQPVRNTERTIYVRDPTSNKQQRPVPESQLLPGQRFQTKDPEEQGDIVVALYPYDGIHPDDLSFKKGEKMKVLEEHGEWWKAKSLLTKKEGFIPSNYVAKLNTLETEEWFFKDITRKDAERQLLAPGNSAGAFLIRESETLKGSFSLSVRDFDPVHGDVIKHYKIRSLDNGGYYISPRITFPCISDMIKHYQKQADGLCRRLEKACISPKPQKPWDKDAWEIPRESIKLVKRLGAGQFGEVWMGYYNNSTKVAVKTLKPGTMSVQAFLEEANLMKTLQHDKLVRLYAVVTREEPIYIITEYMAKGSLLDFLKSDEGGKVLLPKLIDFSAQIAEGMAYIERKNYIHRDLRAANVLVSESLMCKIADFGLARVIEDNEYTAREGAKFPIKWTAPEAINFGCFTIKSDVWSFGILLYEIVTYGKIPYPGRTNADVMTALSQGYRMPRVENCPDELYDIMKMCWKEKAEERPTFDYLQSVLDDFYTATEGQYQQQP
Source text: Biochemical Assay for Inhibitors of Lck and Lyn (Src Family) Kinases Activity
Specific Lck and Lyn substrates are trans-phosphorylated by Lck and Lyn kinases in the presence of ATP traced with 33P-γ-ATP. At the end of the phosphorylation reaction, the unreacted ATP, cold and radioactive, is captured by an excess of dowex ion exchange resin that eventually settles by gravity to the bottom of the reaction plate. The supernatant is subsequently withdrawn and transferred into a counting plate that is then evaluated by β-counting.
Lyn Specific Assay Conditions
The assay has been performed using Lyn full length (accession number P07948 of UniProtKB/Swiss-Prot database).
Kinase buffer was composed of 50 mM HEPES pH 7.5 containing 3 mM MgCl2, 1 mM DTT, 3 μM Na3VO4, and 0.2 mg/mL BSA.
The Lyn kinase assay was run with a final enzyme concentration of 1 nM, in the presence of 25 μM ATP, 1.5 nM 33P-γ-ATP and 250 μM of substrate ABI 1 (Aminoacid sequence: EAIYAAPFAKKK—SEQ ID NO: 3). The peptidic substrate was purchased from American Peptide Company (Sunnyvale, Calif.).
For IC50 determination, test compounds are received as a 1 mM solution in 100% DMSO, distributed into 96 well plates: compounds are then plated into the first column of a microtiter plate (A1 to G1), 100 μL/well.
An automated station for serial dilutions (Biomek FX, Beckman) is used for producing 1:3 dilutions in 100% DMSO, from line A1 to A10, and for all the compounds in the column. Moreover, 4-5 copies of daughter plates are prepared by reformatting 5 μL of this first set of 100% DMSO dilution plates into 384 deep well-plates: one of these plates with the serial dilutions of test compounds will be thawed the day of the experiments, reconstituted at a 3× concentration with water and used in the IC50 determination assays. In a standard experiment, the highest concentration (3×) of all compounds is 30 μM, while the lowest one is 1.5 nM. Each 384 well-plate will contain at least one curve of the standard inhibitor staurosporine and reference wells (total enzyme activity vs. no enzymatic activity) for the Z′ and signal to background evaluation.
384-well plates, V bottom (test plates) are prepared with 5 μL of the compound dilution (3×) and then placed onto a PlateTrak 12 robotized station (Perkin Elmer; the robot has one 384-tip pipetting head for starting the assay plus one 96-tip head for dispensing the resin) together with one reservoir for the Enzyme mix (3×) and one for the ATP mix (3×). At the start of the run, the robot aspirates 5 μL of ATP mix, makes an air gap inside the tips (3 μl) and aspirates 5 μL of JAK2 mix. The following dispensation into the plates plus 3 cycles of mixing, done by the robot itself, starts the kinase reaction. At this point, the correct concentrations are restored for all the reagents. The robot incubates the plates for 60 minutes at room temperature, and then stops the reaction by pipetting 60 μL of dowex resin suspension into the reaction mix. In order to avoid tip clogging, wide bore tips are used to dispense the resin suspension. Three cycles of mixing are done immediately after the addition of the resin. Another mixing cycle is performed after all the plates are stopped, this time using normal tips: the plates are then allowed to rest for about one hour in order to allow resin sedimentation. At this point, 27 μL of the supernatant are transferred into 384-Optiplates (Perkin-Elmer), with 50 μL of Microscint 40 (Perkin-Elmer); after 5 min of orbital shaking the plates are read on a Perkin-Elmer Top Count radioactivity counter.
Data are analyzed by an internally customized version of the SW package “Assay Explorer” that provides sigmoidal fitting of the ten-dilutions curves for IC50 determination in the secondary assays/hit confirmation routines.

[1] = test system: JAK2 dependent human megakaryoblastic leukemia cell line SET-2; assay: Cell proliferation assay (CellTiter-Glo, 72 hours); format: cell-based; details: SET-2 cells
In short: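 About 5×10^3 SET-2 cells per well, in RPMI-1640 with 10% FBS, were exposed to inhibitor dilutions for 72 hours at 37 °C, 5% CO2. Viability read by CellTiter-Glo luminescence. IC50 from sigmoidal fitting of 8-point dilution curves.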

## Cc1ccc(Cl)cc1-c1[nH]c(-c2nc(N)ncc2C#Cc2cccc(CN3CCN(C)CC3)c2)cc1C(N)=O [compound 24, 5-[2-Amino-5-({3-[(4-methylpiperazin-1-yl)methyl]phenyl}ethynyl)pyrimidin-4-yl]-2-(5-chloro-2-methylphenyl)-1H-pyrrole-3-carboxamide]
JAK2 kinase domain
  IC50: 2 nM
Lyn full length
  IC50: 5 nM
[1]; Homo sapiens
  IC50: 330 nM

## Cc1ccc(Cl)cc1-c1[nH]c(-c2nc(N)ncc2C#Cc2cccc(N)c2)cc1C(N)=O [compound 4, 5-{2-amino-5-[(3-aminophenyl)ethynyl]pyrimidin-4-yl}-2-(5-chloro-2-methylphenyl)-1H-pyrrole-3-carboxamide]
JAK2 kinase domain
  IC50: 1 nM
Lyn full length
  IC50: 1 nM
[1]; Homo sapiens
  IC50: 150 nM

## Cc1ccc(Cl)cc1-c1[nH]c(-c2nc(N)ncc2C#Cc2cccc(NCCN)c2)cc1C(N)=O [compound 63, 5-[2-Amino-5-({3-[(2-aminoethyl)amino]phenyl}ethynyl)pyrimidin-4-yl]-2-(5-chloro-2-methylphenyl)-1H-pyrrole-3-carboxamide]
JAK2 kinase domain
  IC50: 3 nM
Lyn full length
  IC50: 5 nM
[1]; Homo sapiens
  IC50: 100 nM

## Cc1ccc(Cl)cc1-c1[nH]c(-c2nc(N)ncc2C#Cc2cccc(C(=O)N3CCN(C)CC3)c2)cc1C(N)=O [compound 27, 5-[2-Amino-5-({3-[(4-methylpiperazin-1-yl)carbonyl]phenyl}ethynyl)pyrimidin-4-yl]-2-(5-chloro-2-methylphenyl)-1H-pyrrole-3-carboxamide]
JAK2 kinase domain
  IC50: 1 nM
Lyn full length
  IC50: 1 nM
[1]; Homo sapiens
  IC50: 580 nM

## Cc1ccc(Cl)cc1-c1[nH]c(-c2nc(N)ncc2C#Cc2ccc(N3CCN(C)CC3)cc2F)cc1C(N)=O [compound 42, 5-(2-Amino-5-{[2-fluoro-4-(4-methylpiperazin-1-yl)phenyl]ethynyl}pyrimidin-4-yl)-2-(5-chloro-2-methylphenyl)-1H-pyrrole-3-carboxamide]
JAK2 kinase domain
  IC50: 11 nM
Lyn full length
  IC50: 9 nM
[1]; Homo sapiens
  IC50: 240 nM

## Cc1ccc(Cl)cc1-c1[nH]c(-c2nc(N)ncc2C#Cc2ccc(N3CCC(O)CC3)cc2)cc1C(N)=O [compound 28, 5-(2-Amino-5-{[4-(4-hydroxypiperidin-1-yl)phenyl]ethynyl}pyrimidin-4-yl)-2-(5-chloro-2-methylphenyl)-1H-pyrrole-3-carboxamide]
JAK2 kinase domain
  IC50: 1 nM
Lyn full length
  IC50: 1 nM
[1]; Homo sapiens
  IC50: 330 nM

## Cc1ccc(Cl)cc1-c1[nH]c(-c2ccnc(N)n2)c(C#Cc2cccc(NCCN)c2)c1C(N)=O [compound 82, 4-({3-[(2-Aminoethyl)amino]phenyl}ethynyl)-5-(2-aminopyrimidin-4-yl)-2-(5-chloro-2-methylphenyl)-1H-pyrrole-3-carboxamide]
JAK2 kinase domain
  IC50: 7 nM
Lyn full length
  IC50: 11 nM
[1]; Homo sapiens
  IC50: 290 nM

## Cc1ccc(Cl)cc1-c1[nH]c(-c2ccnc(N)n2)c(C#Cc2ccc(N)cc2)c1C(N)=O [compound 76, 4-[(4-Aminophenyl)ethynyl]-5-(2-amino-pyrimidin-4-yl)-2-(5-chloro-2-methyl-phenyl)-1H-pyrrole-3-carboxamide]
JAK2 kinase domain
  IC50: 3 nM
Lyn full length
  IC50: 8 nM
[1]; Homo sapiens
  IC50: 500 nM

## Cc1ccc(Cl)cc1-c1[nH]c(-c2ccnc(N)n2)c(C#Cc2cccc(N)c2)c1C(N)=O [compound 72, 4-[(3-Aminophenyl)ethynyl]-5-(2-aminopyrimidin-4-yl)-2-(5-chloro-2-methylphenyl)-1H-pyrrole-3-carboxamide]
JAK2 kinase domain
  IC50: 2 nM
Lyn full length
  IC50: 10 nM
[1]; Homo sapiens
  IC50: 420 nM

## [(2-Aminophenyl)ethynyl]-4-(2-Amino-phenylethynyl)-5-(2-amino-pyrimidin-4-yl)-2-(5-chloro-2-methyl-phenyl)-1H-pyrrole-3-carboxamide [compound 74]
JAK2 kinase domain
  IC50: 4 nM
Lyn full length
  IC50: 13 nM
[1]
  IC50: 120 nM

## COc1cc(N2CCN(C)CC2)ccc1C#Cc1cnc(N)nc1-c1cc(C(N)=O)c(-c2cc(Cl)ccc2C)[nH]1 [compound 46, 5-(2-Amino-5-{[2-methoxy-4-(4-methylpiperazin-1-yl)phenyl]ethynyl}pyrimidin-4-yl)-2-(5-chloro-2-methylphenyl)-1H-pyrrole-3-carboxamide]
JAK2 kinase domain
  IC50: 6 nM
Lyn full length
  IC50: 18 nM
[1]; Homo sapiens
  IC50: 290 nM

## Cc1ccc(Cl)cc1-c1[nH]c(-c2ccnc(N)n2)c(C#Cc2cccc(N3CCN(C)CC3)c2)c1C(N)=O [compound 90, 5-(2-Aminopyrimidin-4-yl)-2-(5-chloro-2-methylphenyl)-4-{[3-(4-methylpiperazin-1-yl)phenyl]ethynyl}-1H-pyrrole-3-carboxamide carboxamide]
JAK2 kinase domain
  IC50: 3 nM
Lyn full length
  IC50: 5 nM
[1]; Homo sapiens
  IC50: 300 nM

## Cc1ccc(Cl)cc1-c1[nH]c(-c2ccnc(N)n2)c(C#Cc2ccc(N3CCC(N(C)C)CC3)cc2)c1C(N)=O [compound 96, 5-(2-Aminopyrimidin-4-yl)-2-(5-chloro-2-methylphenyl)-4-({4-[4-(dimethylamino)piperidin-1-yl]phenyl}ethynyl)-1H-pyrrole-3-carboxamide]
JAK2 kinase domain
  IC50: 4 nM
Lyn full length
  IC50: 93 nM
[1]; Homo sapiens
  IC50: 210 nM

## Cc1ccc(Cl)cc1-c1[nH]c(-c2ccnc(N)n2)c(C#Cc2ccc(N3CCC(N4CCCC4)CC3)cc2)c1C(N)=O [compound 98, 5-(2-Aminopyrimidin-4-yl)-2-(5-chloro-2-methylphenyl)-4-({4-[4-(pyrrolidin-1-yl)piperidin-1-yl]phenyl}ethynyl)-1H-pyrrole-3-carboxamide]
JAK2 kinase domain
  IC50: 36 nM
Lyn full length
  IC50: 208 nM
[1]; Homo sapiens
  IC50: 1640 nM

## CCc1ccc(Cl)cc1-c1[nH]c(-c2ccnc(N)n2)c(C#Cc2ccc(N3CCN(C)CC3)cc2)c1C(N)=O [compound 103, 5-(2-Aminopyrimidin-4-yl)-2-(5-chloro-2-ethylphenyl)-4-{[4-(4-methylpiperazin-1-yl)phenyl]ethynyl}-1H-pyrrole-3-carboxamide]
JAK2 kinase domain
  IC50: 4 nM
Lyn full length
  IC50: 23 nM
[1]; Homo sapiens
  IC50: 180 nM

## Cc1ccc(Cl)cc1-c1[nH]c(-c2ccnc(N)n2)c(C#Cc2ccc(N3CCC(N4CCN(C)CC4)CC3)cc2)c1C(N)=O [compound 95, 5-(2-Aminopyrimidin-4-yl)-2-(5-chloro-2-methylphenyl)-4-({4-[4-(4-methylpiperazin-1-yl)piperidin-1-yl]phenyl}ethynyl)-1H-pyrrole-3-carboxamide]
JAK2 kinase domain
  IC50: 8 nM
Lyn full length
  IC50: 281 nM
[1]; Homo sapiens
  IC50: 400 nM

## CCc1ccc(Cl)cc1-c1[nH]c(-c2ccnc(N)n2)c(C#Cc2ccccc2NCCN(C)C)c1C(N)=O [compound 101, 5-(2-Aminopyrimidin-4-yl)-2-(5-chloro-2-ethylphenyl)-4-[(2-{[2-(dimethylamino)ethyl]amino}phenyl)ethynyl]-1H-pyrrole-3-carboxamide]
JAK2 kinase domain
  IC50: 5 nM
Lyn full length
  IC50: 25 nM
[1]; Homo sapiens
  IC50: 200 nM

## Cc1ccc(Cl)cc1-c1[nH]c(-c2ccnc(N)n2)c(C#Cc2ccc(N3CCC(N4CCCCC4)CC3)cc2)c1C(N)=O [compound 97, 5-(2-Aminopyrimidin-4-yl)-4-{[4-(1,4′-bipiperidin-1′-yl)phenyl]ethynyl}-2-(5-chloro-2-methylphenyl)-1H-pyrrole-3-carboxamide]
JAK2 kinase domain
  IC50: 12 nM
Lyn full length
  IC50: 293 nM
[1]; Homo sapiens
  IC50: 740 nM
